In ChEMBL document CHEMBL1138760, “Conformationally constrained analogues of diacylglycerol (DAG). 23. Hydrophobic ligand-protein interactions versus ligand-lipid interactions of DAG-lactones with protein kinase C (PK-C)” (J Med Chem, 2004) one finds Ki data, which are given here for six molecules.

Experiment [1] deals with Protein kinase C delta type (Homo sapiens, UniProt Q05655). Nature of the experiment: Binding affinity for isolated C1b domain of protein kinase C-delta.
Experiment [2] is described as follows: Binding affinity for protein kinase C-alpha C1a and C1b domains.

pKi: −log10 of the molar value.

Sequence of Protein kinase C delta type (Q05655 whole entry, the tested form may be a part): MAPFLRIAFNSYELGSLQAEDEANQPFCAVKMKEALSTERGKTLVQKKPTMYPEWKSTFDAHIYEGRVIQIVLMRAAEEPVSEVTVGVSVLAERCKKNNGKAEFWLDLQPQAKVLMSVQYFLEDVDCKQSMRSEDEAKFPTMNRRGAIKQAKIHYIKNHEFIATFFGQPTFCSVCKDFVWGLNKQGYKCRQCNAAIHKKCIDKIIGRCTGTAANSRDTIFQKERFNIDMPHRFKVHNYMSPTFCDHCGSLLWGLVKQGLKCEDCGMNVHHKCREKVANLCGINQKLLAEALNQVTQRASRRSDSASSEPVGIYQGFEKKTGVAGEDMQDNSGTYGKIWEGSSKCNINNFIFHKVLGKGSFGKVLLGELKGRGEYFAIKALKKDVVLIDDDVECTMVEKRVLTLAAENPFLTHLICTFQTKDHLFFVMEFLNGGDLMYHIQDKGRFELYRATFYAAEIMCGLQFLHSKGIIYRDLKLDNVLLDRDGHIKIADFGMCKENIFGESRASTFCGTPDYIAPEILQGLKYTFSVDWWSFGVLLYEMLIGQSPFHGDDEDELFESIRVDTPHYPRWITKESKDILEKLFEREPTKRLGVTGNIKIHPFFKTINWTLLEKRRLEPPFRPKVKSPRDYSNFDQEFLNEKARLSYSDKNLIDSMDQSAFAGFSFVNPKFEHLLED

One may read the pKi as −log10 of the Ki, conventionally taken in molar units. In the case of `CC(C)C(C/C=C1/C(=O)OC(CO)(COC(=O)C(C)(C)C)C1(C)C)C(C)C` (stereo not drawn), in experiment [1], the pKi is 5.46.
In the case of `CC(C)C(C/C=C1\CC(CO)(COC(=O)C(C)(C)C)OC1=O)C(C)C` (stereo not drawn), the pKi in experiment [2] is 7.95.
As for `CC(C)CC(C/C=C1\CC(CO)(COC(=O)C(C)(C)C)OC1=O)CC(C)C` (stereo not drawn), the pKi in experiment [2] was 8.49; in experiment [1] it was 9.05.
On to `CC(C)C(C/C=C1/CC(CO)(COC(=O)C(C)(C)C)OC1=O)C(C)C` (stereo not drawn), for which the negative-log Ki (pKi) in experiment [2] was 8.08.
In experiment [1], `CC(C)C(C/C=C1\C(=O)OC(CO)(COC(=O)C(C)(C)C)C1(C)C)C(C)C` (stereo not drawn) had a pKi of 5.84.
In the case of `CC(C)CC(C/C=C1/CC(CO)(COC(=O)C(C)(C)C)OC1=O)CC(C)C` (stereo not drawn), the pKi in experiment [2] was 8.54; in experiment [1], 8.94.
